Laboratory results taken from patent publication US20230220331A1, “TEMPORARY TREATMENT MEDIUM, TREATMENT KIT, EMBRYOGENESIS ARREST INHIBITOR, EMBRYOGENESIS ARREST INHIBITORY METHOD, DEVELOPMENTAL ENGINEERING PRODUCT PREPARATION METHOD, TRANSPLANTATION METHOD, THERAPEUTIC METHOD, AND DEVELOPMENTAL ENGINEERING PRODUCT” (priority 2020, published 2023).

How the values were obtained:
Type in all cases: cell-based
[1] = tested on: Pronuclear stage embryo of C57BL/6J; test: Flox mouse production by the 2STEP method, Mecp2 / Drb1 (Treatment Example 2)
Method: (§1) 1. Up to 3 hours before TAKE, Y-27632-added mWM medium (Y-27632 final concentration 10 μM, an example of the “temporary treatment medium” of this example), Y-27632-free mWM medium (an example of “normal medium” of this example), 5 drops of each medium were dropped on 35 mm Petri dish, and then covered with paraffin oil. For the drops, twice the number of the drops plates to be performed TAKE were prepared.
(§2) 2. Pronuclear stage embryos were collected, placed in Y-27632-added mWM medium, and cultured for about 30 minutes to 1 hour (temporary treatment).
(§3) 3. After that, the first TAKE was performed.
(§4) 3a. In the case of frozen eggs, after the first TAKE, they were placed in a Y-27632-added mWM medium and cultured for about 30 minutes to 1 hour (temporary treatment).
(§5) 3b. In the case of unfrozen eggs, after the first TAKE, they were placed in a Y-27632-added mWM medium and cultured under 37° C. and 5% CO2 (5% O2) conditions until the next day (temporary treatment).
(§6) 4. After the temporary treatment, the embryos were placed in Y-27632-free mWM medium and cultured at 37° C. and 5% CO2 (5% O2) conditions until the next day.
(§7) 5. Both were confirmed at the next day, and the embryos at the 2-cell stage were subjected to the second TAKE.
(§8) 6. After the second TAKE, the embryos were placed in Y-27632-added mWM medium and cultured for about 30 minutes to 1 hour (temporary treatment).
(§9) 7. Then, they were transferred to Y-27632-free mWM medium. If necessary, culture was continued or embryo transfer was performed.
Therefore, in this preparation example, the temporary treatment medium containing Y-27632 was temporarily treated before and after the electroporation (EP) of the 2STEP method. Pronuclear stage embryo of C57BL/6J (CLEA Japan, Inc.) were used as an in-vitro-culture and female MCH (CLEA Japan, Inc.) were used as recipient.
The present inventors conducted an experiment to obtain Flox mice by the 2STEP method targeting the Mecp2 gene.
In Table 2, “m” indicates treatment with the normal medium, and “Y” indicates temporary treatment with the temporary treatment medium. […] That is, “m->m” uses the normal medium in the both step, “m->Y” was temporarily treated with the temporary treatment medium only in the first electroporation step, and “Y->Y” was temporarily treated with the temporary treatment medium in both steps.
In each column, the proportions that the loxP sequence is inserted only on the left side by the first electroporation step (Left loxP), the loxP sequence is inserted only on the right side by the second electroporation step (Right loxP), and both loxP sequences inserted by both steps (2loxP) were respectively shown.

[2] = tested on: inbred mouse B6J embryos; test: Generation of Flox inbred mice (individuals) by two-step method (Treatment Example 11)
Method: as §1, §2, §3, §4, §5, §6, §7, §8, §9
By using an inbred mouse (B6J in B6 strain) different from the inbred mouse of the treatment example 2 according to the first embodiment, knock-in is performed by the same two-step method as the above-mentioned treatment example 2, and further individual preparation is performed.

[3] = tested on: Early embryos of the heterologous mouse Mus caroli; test: ES cell establishment from electroporated early embryos (Treatment Example 4); conditions: Mus caroli early embryos cultured in Y-27632 medium, then electroporated
Method: 1. Up to 3 hours before TAKE, Y-27632-added mWM medium (Y-27632 final concentration 10 μM, an example of the “temporary treatment medium” of this example), Y-27632-free mWM medium (an example of “normal medium” of this example) were dropped into 35 mm Petri dishes by 5 drops, respectively, to prepare drops covered with paraffin oil.
2. Two-cell stage embryos were collected from the drops or thawed, placed in Y-27632-added mWM medium, and cultured for about 30 minutes to 1 hour (temporary treatment).
3. After that, TAKE was performed.
4. After TAKE, the embryos were placed in Y-27632-added mWM medium and cultured for about 30 minutes to 1 hour (temporary treatment). Then, the embryos were placed in Y-27632-free mWM medium and cultured at 37° C. under 5% CO2 and 5% O2 conditions until transplantation.
5. Then, if necessary, the culture was continued in the Y-27632-free mWM medium to establish ES cells.
When Mus caroli ES cells were knocked out of the Tyr gene by genome editing and a part of them was analyzed, it was shown that NHEJ occurred and heterologous mouse ES cells were established.

[4] = tested on: pig fertilized embryos that had undergone in vitro maturation and in vitro fertilization with frozen semen; test: Development of electroporated pig IVM/IVF embryos (Treatment Example 5)
Method: 1. On the day before TAKE, 5 drops of Y-27632-added PZM-5 medium (Y-27632 final concentration 10 μM, an example of the “temporary treatment medium” of this example) was dropped on a 35 mm Petri dish to prepare a drop coated with paraffin oil. In the drop of this example, 20 μL of medium was added dropwise, 1 mL of oil was added, then 20 μL of medium was added again, and the mixture was completely covered with oil. This drop produced twice as many as the TAKE.
2. IVF was performed based on a method common to those skilled in the art.
3. On the day after fertilization, IVF embryos were placed in Y-27632-added PZM-5 medium and cultured for about 30 minutes to 1 hour (temporary treatment).
4. After that, TAKE was performed.
5. The embryos were returned to Y-27632-free PZM-5 medium (an example of the “normal medium” of this example) and cultured under the conditions of 39° C., 5% CO2, and 5% O2.
6. If necessary, sampling, or the like, was performed at the development stage. If the culture is to be continued until the blastocyst stage, the drops containing Y-27632-free PZM-5 medium and PBM medium was made in the same way as the step of “1.” at four days after insemination.
7. […]
In addition, the effect of the temporary treatment medium of this example was measured on pig fertilized embryos that had undergone in vitro maturation and in vitro fertilization with frozen semen.

[5] = group Y → Y, 2STEP, Mecp2-Flox, blastocysts, listed as Y
[6] = group m → Y, 2STEP, target Mecp2-Flox
[7] = floxed Mecp2 2STEP (HIGH CONCENTRATION)

`C[C@@H](N)[C@H]1CC[C@H](C(=O)Nc2ccncc2)CC1` [Y-27632, trans-4-[(1R)-1-Aminoethyl]-N-4-pyrid inylcyclohexanecarboxamide] was tested, and the “Flox neonates obtained (%)” value ([1]; 2STEP, Mecp2, neonates, Y-27632 added) was 4%, the “Left loxP (proportion inserted)” value ([1]; group Y → Y (temporary treatment in both steps), 2STEP, Mecp2-Flox) was 1/15 and the “Left loxP (%)” value ([1]; group Y → Y, 2STEP, Mecp2-Flox) was “(6.7%)”. For the same compound, the “Right loxP (%)” value ([1]; group Y → Y, 2STEP, Mecp2-Flox) was “(13.3%)”, the “Right loxP (proportion inserted)” value ([1]; group Y → Y, 2STEP, Mecp2-Flox) was 2/15 and the “2loxP (%), Flox blastocysts” value ([1]; group Y → Y, 2STEP, Mecp2-Flox, blastocysts) was 7%. For the same compound, the “2loxP (%), Flox blastocysts” value [1, 5] was “(6.7%)”, the “2loxP (proportion, Flox blastocysts)” value [1, 5] was 1/15 and the “2loxP (%)” value [1, 6] was “(0%)”. The “2loxP (proportion, both loxP inserted)” value [1, 6] was 0/17, the “Left loxP (%)” value [1, 6] was “(5.9%)” and the “Left loxP (proportion inserted)” value [1, 6] was 1/17. The “Right loxP (%)” value [1, 6] was “(5.9%)”, the “Right loxP (proportion inserted)” value [1, 6] was 1/17 and the “inbred strains of Flox mice obtained by the 2STEP method” value ([1]; two types of genes (Mecp2, Drb1)) was “obtained only from the experimental groups to which Y-27632 were added”. For the same compound, the Flox individuals % ([2]; floxed Drb1 2STEP) was 2.6%, the “NUMBER OF FLOX INDIVIDUALS” value ([2]; floxed Drb1 2STEP) was 1/39 and the Flox individuals % [2, 7] was 3.9%. For the same compound, the “NUMBER OF FLOX INDIVIDUALS” value [2, 7] was 2/51, the ES cells established [3] was “at a high rate” and the “2-cell stage embryos developed into late blastocysts (proportion)” value [4] was 35 out of 123.
